Here are results for six compounds from PubChem BioAssay (NCI).

Test systems include MALME-3M melanoma; PC-3 prostate; IGROV1 ovarian; NCI-H460 lung; HCT-116 colon; DU-145 prostate; NCI-H522 lung; KM12 colon; RPMI-8226 leukemia; SF-295 CNS; SNB-75 CNS; MDA-N; NCI-H226 lung; A498 renal; BT-549 breast; ACHN renal; RXF 393 renal; SK-MEL-5 melanoma; MDA-MB-435; NCI/ADR-RES ovarian.
Holding throughout (assay): growth of human tumour cells (NCI), 48 h

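Cells were grown in 96-well plates and exposed to each compound for 48 hours at five concentrations; endpoints were interpolated linearly between bracketing concentrations, or set to the highest concentration if not reached. TGI is the concentration that stops growth completely.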 Where only a bound is given, the exact number is not on record here.

Regarding `CC1=NN(C(=O)CC(=O)Nc2cccc(C)c2)C(=O)C1N=Nc1ccc(S(=O)(=O)c2ccc(N=NC3C(=O)N(C(=O)CC(=O)Nc4cccc(C)c4)N=C3C)cc2)cc1` (stereo not given), the TGI in the assay on MALME-3M melanoma, in the assay with PC-3 prostate, in the assay with IGROV1 ovarian, in the assay with NCI-H460 lung, with HCT-116 colon and with DU-145 prostate was > 100 µM in each case. Further, the TGI in the assay with NCI-H522 lung, with KM12 colon, with RPMI-8226 leukemia, with SF-295 CNS, in the assay with SNB-75 CNS and with MDA-N was > 100 µM each time. In addition, the TGI in the assay with NCI-H226 lung, in the assay with A498 renal, with BT-549 breast, in the assay on ACHN renal, in the assay with RXF 393 renal and in the assay with SK-MEL-5 melanoma was > 100 µM in each case. In addition, the TGI in the assay with MDA-MB-435 and with NCI/ADR-RES ovarian was > 100 µM throughout.
As for `COC(=O)c1cnn2c1ccc1ccccc12`, the TGI with MALME-3M melanoma, in the assay on PC-3 prostate, in the assay with IGROV1 ovarian, in the assay with NCI-H460 lung, with HCT-116 colon and in the assay with DU-145 prostate was > 100 µM each time. Besides, the TGI in the assay with NCI-H522 lung, in the assay with KM12 colon, with RPMI-8226 leukemia, with SF-295 CNS, with SNB-75 CNS and in the assay on MDA-N was > 100 µM in each case. Besides, the TGI in the assay on NCI-H226 lung, in the assay on A498 renal, with BT-549 breast, with ACHN renal, in the assay on RXF 393 renal and in the assay on SK-MEL-5 melanoma was > 100 µM each time. The TGI in the assay on MDA-MB-435 and with NCI/ADR-RES ovarian was > 100 µM each time.
Consider `CCOC(=O)c1[nH]cc(C)c1-c1c[nH]c2ccccc12`, for which the TGI with MALME-3M melanoma is > 100 µM; with PC-3 prostate, > 82.7 µM; with IGROV1 ovarian it was > 100 µM; in the assay with NCI-H460 lung, > 87.5 µM; with HCT-116 colon, > 53.2 µM; in the assay on DU-145 prostate it was > 100 µM. In addition, the TGI in the assay with NCI-H522 lung was > 81.8 µM; in the assay on KM12 colon it was > 100 µM; with RPMI-8226 leukemia, 41.9 µM; in the assay with SF-295 CNS, > 93 µM; in the assay on SNB-75 CNS it was 90.7 µM; in the assay on MDA-N, > 83.8 µM. The TGI was 67.6 µM with NCI-H226 lung; > 100 µM with A498 renal; 93.8 µM with BT-549 breast; > 71.4 µM in the assay with ACHN renal; > 80 µM in the assay with RXF 393 renal; 34.5 µM with SK-MEL-5 melanoma. Also, the TGI in the assay with MDA-MB-435 was > 100 µM; in the assay with NCI/ADR-RES ovarian it was 72.5 µM.
Regarding `CC(C)(C)OC(=O)CC(NC(=O)OC(C)(C)C)C(=O)NC(C(=O)O)C(O)c1ccccc1` (stereo not given), the TGI in the assay with MALME-3M melanoma, with PC-3 prostate, with IGROV1 ovarian, in the assay with NCI-H460 lung, in the assay on HCT-116 colon and with DU-145 prostate was > 100 µM each time. For the same compound, the TGI in the assay on NCI-H522 lung, with KM12 colon, with RPMI-8226 leukemia, with SF-295 CNS, in the assay with SNB-75 CNS and with MDA-N was > 100 µM in each case. The TGI with NCI-H226 lung, in the assay on A498 renal, with BT-549 breast, in the assay with ACHN renal, in the assay with RXF 393 renal and with SK-MEL-5 melanoma was > 100 µM each time. The TGI in the assay on MDA-MB-435 and in the assay with NCI/ADR-RES ovarian was > 100 µM in each case.
For the compound `Cn1c(=O)cc(N=Nc2ccc(Cl)c(Cl)c2)[nH]c1=O`, the TGI was 32.6 µM with MALME-3M melanoma; 56.1 µM with PC-3 prostate; > 100 µM with IGROV1 ovarian; > 100 µM in the assay on NCI-H460 lung; 59.6 µM in the assay with HCT-116 colon; > 100 µM in the assay with DU-145 prostate. Besides, the TGI in the assay with NCI-H522 lung was 49.4 µM; with KM12 colon, > 100 µM; with RPMI-8226 leukemia, 71.1 µM; in the assay with SF-295 CNS, > 100 µM; in the assay with SNB-75 CNS, > 100 µM; with MDA-N, 37.4 µM. The TGI was > 100 µM in the assay on NCI-H226 lung; > 100 µM in the assay on A498 renal; 96.2 µM in the assay with BT-549 breast; 47.4 µM in the assay with ACHN renal; 63.6 µM with RXF 393 renal; > 100 µM with SK-MEL-5 melanoma. The results for the TGI in the assay with MDA-MB-435 and in the assay with NCI/ADR-RES ovarian were 40.5 µM and 77.4 µM, respectively.
As to `COc1ccc2oc(=O)c(-c3nc4ccccc4o3)cc2c1`, the TGI in the assay on MALME-3M melanoma, in the assay on PC-3 prostate, with IGROV1 ovarian, with NCI-H460 lung, with HCT-116 colon and in the assay with DU-145 prostate was > 100 µM each time. The TGI with NCI-H522 lung, in the assay on KM12 colon, in the assay with RPMI-8226 leukemia, in the assay on SF-295 CNS, with SNB-75 CNS and in the assay on MDA-N was > 100 µM in each case. Besides, the TGI in the assay with NCI-H226 lung, in the assay on A498 renal, in the assay with BT-549 breast, in the assay on ACHN renal, in the assay with RXF 393 renal and in the assay with SK-MEL-5 melanoma was > 100 µM in each case. For the same compound, the TGI in the assay with MDA-MB-435 and in the assay on NCI/ADR-RES ovarian was > 100 µM each time.
